In patent publication US20230235286A1, “MRNA TRANSFECTION OF IMMUNE CELLS” (Carisma Therapeutics Inc., priority 2020, published 2023):

B1: CD40L: Recombinant CD40 ligand (Peprotech) (protein, UniProt P29965 113-261, looked up)
CD40 ligand, soluble form: MQKGDQNPQIAAHVISEASSKTTSVLQWAEKGYYTMSNNLVTLENGKQLTVKRQGLYYIYAQVTFCSNREASSQAPFIASLCLKSPGRFERILLRAANTHSSAKPCGQQSIHLGGVFELQPGASVFVNVTDPSQVSHGTGFTSFGLLKL
B2: IFN-γ: recombinant human IFN-γ (peprotech) (protein, UniProt P01579 24-161, looked up)
Interferon gamma: QDPYVKEAENLKKYFNAGHSDVADNGTLFLGILKNWKEESDRKIMQSQIVSFYFKLFKNFKDDQSIQKSVETIKEDMNVKFFNSNKKKRDDFEKLTNYSVTDLNVQRKAIHELIQVMAELSPAAKTGKRKRSQMLFRG

Tests used:
human macrophages [1] = test: M1/M2 marker expression on CAR macrophages by flow cytometry; format: cell-based; details: mRNA transfected CAR macrophages
Description: IFN containing media was washed off after the indicated time. IFN-primed CAR macrophages were used for further analysis.
(§1) M1/M2 markers on primary human macrophages were detected with the following panel: Anti-CD11B PE (Biolegend, 301306), Anti-CD80 BV605 (Biolegend, 305225), Anti-CD86 BV711 (Biolegend, 305440), Anti CD206 BV421 (Biolegend, 321126), Anti CD163 APC-CY7 (Biolegend, 333622), anti HLA-DR BV785 (Biolegend, 307642), Anti HLA ABC PE/CY7 (Biolegend, 311430) and Live/Dead Fixable Aqua Dead Cell Stain Kit. Cytokine production (IL12, IFN-γ, TNF-α, IL6, IL8, IL1b, MCP-1, IL10, IL4, IL13, and other human cytokines) was evaluated in supernatant collected from macrophages (control or CAR) treated as described below using the MSD instrument per manufacturers recommendations (Meso Scale Discovery). In some cases, macrophages were co-cultured with antigen-bearing target cells at indicated effector to target ratios.
(§2) Human macrophages were electroporated with HER2 CAR mRNA comprising m6AGCap1 and PsU modifications. Cells were cultured with cytokines that induce an M1 phenotype such as IFN-alpha, IFN-beta, IFN-gamma, IFN-gamma plus lipopolysaccharide (LPS), TNF-alpha, IL-6 or a STING ligand (STING-L) for up to 48 hours and then cytokines were washed off and fresh media was added. CAR expression and M1 marker expression were measured on days 2 and 7 after transfection. Fluorescent labeled HER2+ breast cancer cells (CRL2351) were co-cultured with HER2 CAR macrophages two days after the macrophages were transfected. Cancer cell growth was monitored via its fluorescence on an Incucyte live imaging microscope every four hours. The Effector (CAR macrophage) to Target (cancer cell) ratio was 5:1.
Human macrophages were electroporated with 300 nM CAR mRNA comprising m6AGCap1 and PsU modifications. Cells were cultured with 20 ng/mL IFNs for 24 hours and then the cells were washed to remove cytokines. CAR expression was detected by Flow Cytometry (Attune) on day 2 after transfection. Cells were then co-cultured with a Nuc-Light labeled, HER2+ breast cancer cell line (CRL2351) at the Effector to Target ratio of 3:1. Cancer cell growth was monitored via its fluorescence on an Incucyte live imaging microscope. CAR expression and M1 markers in macrophages were detected by Flow Cytometry (Attune) on day 7 after transfection.

human macrophages [2] = test: Cytokine secretion of CAR macrophages co-cultured with HER2+ breast cancer cells (MSD); format: cell-based; details: supernatant 48 hours after co-culture, E:T 3:1
Description: as §1
Human macrophages were electroporated with 150 nM HER2 CAR mRNA comprising m6AGCap1 and PsU modifications. HER2+ breast cancer cells (CRL2351) were co-cultured with CAR macrophages after the macrophages were transfected with the CAR mRNA at an Effector (CAR macrophage) to Target (cancer cell) ratio of 3:1. Supernatant was collected 48 hours after the cancer cells and macrophages were co-cultured and cytokine levels were measured using a Meso Scale Discovery (MSD) instrument.

human macrophages [3] = test: mCherry expression in transfected macrophages with IFN-γ, sunitinib or ABCE1 (Incucyte); format: cell-based; details: cultured one day with different doses of IFN-γ
Description: The transfection efficiency, persistence of expression, and intensity of expression of the fluorescent reporter gene mCherry in human monocytes or macrophages was evaluated using real time live microscopy on the Incucyte (Sartorius) for the indicated period of time.
Macrophages were treated with 0-10 µM sunitinib (an RNAse-L inhibitor) for 2 hours prior to mRNA electroporation or transfection. The level of expression and persistence of expression of the encoded transgene was assessed using methods described above.
Human macrophages were transfected with mCherry mRNA comprising m6AGCap1 and PsU or N1mPsU modifications and were then cultured for one day with different doses of IFN-γ. mCherry expression was monitored on an Incucyte live imaging microscope.
In order to determine whether an RNaseL inhibitor could rescue IFN-γ-induced instability of transfected mRNA, human macrophages were treated with 1 µM sunitinib (an RNaseL inhibitor) two hours prior to the transfection of mCherry mRNA comprising m6AGCap1 and PsU modifications. Transfected cells were then cultured for one day with different dosages of IFN-γ. mCherry expression was monitored on an Incucyte live imaging microscope.
The effect of another RNaseL inhibitor (RLI or ABCE1) was also tested to further validate the concept. […]

human macrophages [4] = test: CAR expression on macrophages by flow cytometry; format: cell-based; details: two days after transfection, 20 ng/mL IFNs for 24 hours
[5] = test system: CRL-2351 cells expressing nuclear GFP; test: Tumor killing by macrophages and CAR macrophages primed on plates coated with CD40L, 4-1BB or 4-1BBL; format: cell-based, human; details: plate-coated protein
Description: (§3) To generate Her2-Zeta CAR expressing macrophages, primary human macrophages were suspended in EP buffer (MaxCyte) containing 300 nM mRNA (TriLink) at a concentration of 90×10^6 cells/mL. 100 µL of cell mixture was added to an electroporation cassette (OC 100x2; MaxCyte) and electroporated using the Experimental T cell 1 setting. Cells were removed from the cassette, plated in 3 mL of TexMACS media (Miltenyi Biotech) containing 20% FBS (Gibco) on UpCell plates (Thermo Scientific), and incubated overnight at 37° C. and 5% CO2.
(§4) Recombinant CD40 ligand (Peprotech), 4-1BB ligand (Enzo Life Sciences), and 4-1BB receptor (Peprotech) were re-suspended in molecular grade water to a stock concentration of 100 µg/mL. Stock solution was then used to create working solutions in PBS ranging from 2 -0.002 µg/mL. 100 µL of working solution was added to wells in a 96-well plate and left at room temperature for 4 hours.
Plates were removed from the incubator and left at room temperature for 30 minutes. Cells were detached from plate, counted using the NC-200 automated cell counter (Chemomtech), and re-suspended in TexMACS media with 10% FBS. […] Cell lysis was detected using the Incucyte (Essen Bioscience). Tumor cell death was calculated by integrated GFP intensity per well relative to time 0.

[6] = test system: primary human macrophages; test: M1 and M2 marker expression after priming with CD40L, 4-1BB or 4-1BBL; format: cell-based; details: macrophages transfected with CAR mRNA, 3 days
Description: as §3, §4
For detection of cell surface proteins, macrophages were plated onto wells coated with agonist molecules in a final volume of 200 µL TexMACS media + 10% FBS + 10 ng/mL GM-CSF and incubated for 3 days at 37° C. and 5% CO2. Cells were incubated in 300 µL Accutase (Sigma) for 30 min and transferred to 96-well round bottom plate for staining. Cells were incubated in FACS buffer containing 20 µg/mL Her2-His for 20 min at RT, followed by incubation in Human TruStain FcX for 10 min at RT. […]

human macrophages [7] = test: Viability of macrophages electroporated or transfected with CAR mRNA (FACS); format: cell-based; details: two days after transfection, 20 ng/mL IFNs for 24 hours
Description: as §2, with “The Effector (CAR macrophage) to Target (cancer cell) ratio was 5:1.” left out
Five different mRNA modifications were also tested to determine if interferon treatment differentially affected macrophages transfected with mRNA comprising different modifications. […] CAR expression and M1 markers were detected by Flow Cytometry (Attune) on day four after electroporation. […] Cancer cell growth was monitored via its fluorescence on an Incucyte live imaging microscope every four hours.
Human macrophages were electroporated with 300 nM CAR mRNA comprising m6AGCap1 and PsU modifications. […] CAR expression was detected by Flow Cytometry (Attune) on day 2 after transfection. […] Cancer cell growth was monitored via its fluorescence on an Incucyte live imaging microscope. […]

| Molecule | M1 phenotype based on CD86 expression (human macrophages [1]) | M2 markers based on CD163 expression (human macrophages [1]) | cytokine secretion (human macrophages [2]) | further results |
| --- | --- | --- | --- | --- |
| IFN-α | induction of an M1 phenotype | reduction of M2 markers | increased secretion of the cytokines IL-6, IL-8 and TNFα | – |
| IFN-γ: recombinant human IFN-γ (peprotech) | induction of an M1 phenotype | reduction of M2 markers | increased secretion of the cytokines IL-6, IL-8 and TNFα | mCherry mRNA expression (human macrophages [3]): reduced mCherry mRNA expression; CAR expression (human macrophages [4]): very high except in macrophages that had been treated with IFN-γ |
| B1 | – | – | – | tumor killing ability of macrophages and CAR macrophages [5]: significantly improved the tumor killing ability; M1 phenotype (M1 and M2 markers) [6]: induced an M1 phenotype |
| B2 | – | – | – | CAR macrophage viability (human macrophages [7]): very high except in macrophages that had been treated with IFN-γ |
